Measured values reported in paper PMC8847695 (Frontiers in Chemistry, 2022).

What was measured:
Assay type in all cases: binding
Conditions in all cases: 1 = hit, 0 = no hit
[1] = target: T1, IDO1 (1-435) (Homo sapiens, UniProt P14902); assay: STD-NMR fragment screening, IDO1
T1 construct: His-tag of pET15b with TEV site (thrombin site replaced) (cleaved yes); made in house; host or cells: E. coli Rosetta 2 (DE3) pLysS
Method: (§1) All fragments were stored at −20°C as solids in argon flushed glass bottles. For NMR screening, fragments were weighed and dissolved in DMSO-d6 to a stock concentration of 300 mM. Mother plates were prepared with a 100 mM concentration. From these plates, daughter plates were prepared with the fragments mixed in the plates to a concentration of 50 mM for each fragment. Daughter plates were opened a maximum of eight times. The plates were argon flushed and sealed with a HT121TS (HTA) and Foil Heat Seal (Biozym).
(§2) For long time measurements, like the protein ^1H NMR spectrum, the buffer exchange was performed twice to reduce residual buffer peaks. All experiments were performed on a Bruker Avance III HDX 700 instrument, equipped with a 5 mm Prodigy TCI cryo-probehead. For every protein, a standard ^1H NMR experiment with 1 k scans and water suppression through presaturation was performed. […] The on-resonance frequency, which was determined from the ^1H NMR spectra of the protein, was between 0.5 and 0.6 ppm; 40 ppm was used as the off-resonance frequency. For an interleaved acquisition of the on- and off-resonance, a pseudo-2D scheme was applied. The saturation was done by Gaussian pulses with a length of 50 ms and 60 dB of attenuation, with an interpulse delay of 1 ms leading to an excitation bandwidth of about 42 Hz. The screening was done with 16 scans of on- and off-resonance scans each, with a 3 s saturation time. The samples contained final concentrations of 20 µM protein, 10% (^V/V) DMSO-d6, and 1 mM of each of the two fragments. A ^1H-NMR experiment was performed for each compound to act as a reference spectrum in the STD experiments. All NMR experiments were carried out at 25°C.
(§3) Fifteen of these compounds contain the same halogen twice. No compound bears mixtures of different halogen atoms. Four proteins (AAK1, CAMK1G, IDO1, and DOT1L) were screened against this HEFLib using STD-NMR. A fragment was considered a hit if the peak intensity in the difference spectrum was three times higher than the local background noise. […] Chemical compatibility and peak complementarity were assured for these mixtures. Samples containing more than two fragments were avoided to minimize the possible target competition and to decrease the risk of fragment interactions. […] The ^1H reference NMR spectrum of the mixture is shown in red for comparison. […] As fragment mixtures can lead to competitive effects between their fragments, it is not advised to use the quantification of peak mixtures for hit ranking.

[2] = target: T2, CAMK1G (1-320) (Homo sapiens, UniProt Q96NX5); assay: STD-NMR fragment screening, CAMK1G
T2 construct: made in house; host or cells: E. coli BL21 (DE3) pLysS
T2 sequence (Q96NX5 1-320): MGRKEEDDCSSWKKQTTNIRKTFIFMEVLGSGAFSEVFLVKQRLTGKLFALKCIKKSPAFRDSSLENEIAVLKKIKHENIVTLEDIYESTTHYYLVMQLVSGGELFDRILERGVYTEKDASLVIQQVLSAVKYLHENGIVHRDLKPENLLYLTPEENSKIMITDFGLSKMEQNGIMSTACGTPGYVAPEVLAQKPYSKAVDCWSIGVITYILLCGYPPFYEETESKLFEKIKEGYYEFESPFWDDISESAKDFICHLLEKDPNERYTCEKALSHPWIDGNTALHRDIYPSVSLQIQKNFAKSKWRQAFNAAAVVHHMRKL
Method: as §1, §2, §3

[3] = target: T3, DOT1L (1-416) (Homo sapiens, UniProt Q8TEK3); assay: STD-NMR fragment screening, DOT1L
T3 construct: made in house; host or cells: E. coli BL21 (DE3) pLysS
T3 sequence (Q8TEK3 1-416): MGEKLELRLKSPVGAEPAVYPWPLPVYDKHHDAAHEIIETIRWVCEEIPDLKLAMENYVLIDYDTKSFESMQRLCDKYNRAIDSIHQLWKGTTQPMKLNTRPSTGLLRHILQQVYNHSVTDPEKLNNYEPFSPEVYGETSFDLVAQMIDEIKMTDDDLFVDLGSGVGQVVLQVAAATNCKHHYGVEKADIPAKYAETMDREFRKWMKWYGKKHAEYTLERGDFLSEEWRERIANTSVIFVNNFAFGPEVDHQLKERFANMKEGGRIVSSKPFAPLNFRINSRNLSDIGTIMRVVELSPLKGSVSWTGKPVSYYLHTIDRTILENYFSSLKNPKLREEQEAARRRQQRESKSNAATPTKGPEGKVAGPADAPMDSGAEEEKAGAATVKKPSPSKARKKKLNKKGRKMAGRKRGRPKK
Method: as §1, §2, §3

[4] = target: AAK1 (121-471) (Homo sapiens, UniProt Q2M2I8); assay: STD-NMR fragment screening, AAK1
AAK1 (121-471), sequence (Q2M2I8 46-315 limits assumed): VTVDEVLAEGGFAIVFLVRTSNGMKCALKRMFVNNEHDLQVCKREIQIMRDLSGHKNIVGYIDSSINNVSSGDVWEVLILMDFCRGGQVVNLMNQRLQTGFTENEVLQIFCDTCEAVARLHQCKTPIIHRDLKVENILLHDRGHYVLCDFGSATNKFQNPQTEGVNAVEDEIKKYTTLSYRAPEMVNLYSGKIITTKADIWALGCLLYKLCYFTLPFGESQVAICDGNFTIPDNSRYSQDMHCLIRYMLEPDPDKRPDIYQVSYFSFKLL
Method: as §1, §2, §3

T1 sequence (P14902 whole entry, the tested form may be a part): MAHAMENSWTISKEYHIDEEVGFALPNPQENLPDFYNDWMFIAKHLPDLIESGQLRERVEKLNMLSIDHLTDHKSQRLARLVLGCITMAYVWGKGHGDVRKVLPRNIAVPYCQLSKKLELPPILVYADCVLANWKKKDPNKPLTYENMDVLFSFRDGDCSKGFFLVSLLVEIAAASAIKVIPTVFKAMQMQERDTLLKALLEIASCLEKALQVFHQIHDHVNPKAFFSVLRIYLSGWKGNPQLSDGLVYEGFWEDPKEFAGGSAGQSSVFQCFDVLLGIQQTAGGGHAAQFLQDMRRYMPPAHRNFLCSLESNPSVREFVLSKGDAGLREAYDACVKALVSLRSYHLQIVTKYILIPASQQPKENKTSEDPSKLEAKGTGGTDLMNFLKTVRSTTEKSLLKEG

Row | IDO1 (STD-NMR hit flag) [1] | CAMK1G (STD-NMR hit flag) [2] | DOT1L (STD-NMR hit flag) [3] | AAK1 (STD-NMR hit flag) [4] | SMILES
1 | 0 | 0 | 0 | 0 | O=C(O)c1ncccc1Br [Fragment B02289614]
2 | 0 | 0 | 0 | 0 | O=C(O)c1ccc(Cl)c(O)c1 [Fragment B02289615]
3 | 0 | 0 | 0 | 1 | Cc1ccc(N)c(Cl)n1 [Fragment B02289616]
4 | 0 | 1 | 0 | 0 | Brc1cnc2cnccn12 [Fragment B02289617]
5 | 0 | 0 | 0 | 0 | O=c1[nH]cnc(O)c1Br [Fragment B02289618]
6 | 0 | 1 | 0 | 0 | Cc1ncccc1Br [Fragment B02289619]
7 | 1 | 0 | 0 | 0 | Cn1ccc(Br)n1 [Fragment B02289620]
8 | 0 | 1 | 0 | 1 | Nc1ncnc(Cl)c1Cl [Fragment B02289621]
9 | 0 | 0 | 0 | 0 | Brc1cncnc1 [Fragment B02289809]
10 | 0 | 1 | 0 | 0 | Brc1cnc(N2CCCNCC2)nc1 [Fragment B02290087]
11 | 0 | 0 | 0 | 0 | COc1ccc(CN)c(Cl)c1 [Fragment B02290088]
12 | 0 | 0 | 0 | 0 | CN(N)c1ncc(C(F)(F)F)cc1Cl [Fragment B02290089]
13 | 0 | 0 | 0 | 0 | NCc1cc(Cl)cc(Cl)c1N [Fragment B02290090]
14 | 0 | 0 | 0 | 0 | COc1ccc(I)cc1CNCCO [Fragment B02290112]
15 | 1 | 0 | 0 | 1 | Brc1cnn(-c2nnn[nH]2)c1 [Fragment B02290113]
16 | 0 | 0 | 0 | 0 | CC(C(=O)O)n1cc(Br)cn1 (stereo not drawn) [Fragment B02290114]
17 | 0 | 1 | 0 | 0 | O=C(c1cc(Br)c[nH]1)N1CCOCC1 [Fragment B02290115]
18 | 1 | 0 | 0 | 0 | Cn1ncc(Br)c1C(=O)O [Fragment B02290116]
19 | 0 | 0 | 0 | 0 | NCCCn1cc(Cl)cn1 [Fragment B02290117]
20 | 0 | 0 | 0 | 0 | NC(=O)c1nc(Cl)n[nH]1 [Fragment B02290118]
21 | 0 | 0 | 0 | 0 | O=C(O)CCc1nc(Br)n[nH]1 [Fragment B02290119]
